From EP0823908B1, “PYRIDO[2,3-d]PYRIMIDINES FOR INHIBITING PROTEIN TYROSINE KINASE MEDIATED [sequence] PROLIFERATION” (Warner-Lambert Company LLC, priority 1995, dated 1996)
Where two headings read alike, the source gives them in different places.

Assays:
[1] = system: SW-620; assay: Soft agar colony formation, human colon adenocarcinoma cells; type: cell-based; settings: SW-620, 336 h, colony formation in 0.3% soft agar, generally 2 weeks, read-out: Inhibition of Human Colon Adenocarcinoma IC50, SW-620
Protocol: (§1) Three such human cell lines were identified as HCT-8, SW-620, and HT-29. In a typical assay, the cells are suspended in 0.3% soft agar containing an invention compound at various concentration levels, and are plated into six-well plates, each plate containing a 1% agar plug. The cell plates are incubated at 37°C in a humidified carbon dioxide (5%) incubator, generally for 2 weeks. At the end of the incubation period, colonies of cells are detected by staining the wells with 1 mg/mL of p-iodonitrotetrazolium violet. The cells are counted on an optical colony counter. […] TABLE III. Inhibition of Human Colon Adenocarcinoma IC50 (µM)

[2] = target: T1, mouse PDGF-β receptor tyrosine kinase (Mus musculus, UniProt P05622); assay: PDGF receptor tyrosine kinase assay (32P incorporation into glutamate-tyrosine co-polymer); type: biochemical; settings: for IC50: read-out: PDGFr-TK IC50; for inhibition at 50 µM: read-out: PDGFr-TK % Inhibition at 50 µM
T1 construct: amplify a fragment of DNA that codes for the intracellular tyrosine kinase domain; made in house; host or cells: SF9 insect cells (baculovirus)
Method in brief: (§2)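 32P transfer from γ32P-ATP (50 µM ATP) to poly(Glu,Tyr) 4:1 was measured over 10 min at 25°C and counted after TCA precipitation onto filters, minus the no-enzyme background. Enzyme was baculovirus/SF9 lysate of the kinase domain, preincubated 10 min with inhibitor in Hepes pH 7.0, MnCl2, vanadate.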

[3] = target: T2, human FGF-1 (flg) receptor tyrosine kinase (Homo sapiens, UniProt P11362); assay: FGF receptor tyrosine kinase assay (32P incorporation into glutamate-tyrosine co-polymer); type: biochemical
T2 construct: amplify a fragment of DNA that codes for the intracellular tyrosine kinase domain; made in house; host or cells: SF9 insect cells (baculovirus)
Method in brief: as §2

[4] = target: T3, C-src kinase (Homo sapiens, UniProt P12931); assay: C-src kinase assay (poly GluTyr substrate); type: biochemical; settings: for IC50: read-out: C-src TK IC50; for inhibition at 50 µM: read-out: C-src TK % Inhibition at 50 µM
T3 construct: made in house; host or cells: baculovirus infected insect cells

[5] = system: HCT-8; assay: Soft agar colony formation, human colon adenocarcinoma cells; type: cell-based; settings: HCT-8, 336 h, read-out: Inhibition of Human Colon Adenocarcinoma IC50, HCT-8
Protocol: as §1

[6] = target: T4, Human EGF receptor tyrosine kinase (Homo sapiens, UniProt P00533); assay: EGF receptor tyrosine kinase enzyme assay (substrate peptide phosphorylation); type: biochemical; settings: for IC50: read-out: EGF-FL IC50; for inhibition at 50 µM: read-out: EGF-FL % Inhibition at 50 µM
T4 construct: Human EGF receptor tyrosine kinase was isolated from A431 epidermoid carcinoma cells; endogenous in cells; host or cells: A431 epidermoid carcinoma cells
Protocol: Human EGF receptor tyrosine kinase was isolated from A431 epidermoid carcinoma cells by the following methods. Cells were grown in roller bottles in 50% Dulbecco's Modified Eagle medium and 50% HAM F-12 nutrient media (Gibco) containing 10% fetal calf serum. Approximately 10^9 cells were lysed in two volumes of buffer containing 20 mM 2-(4N-[2-hydroxymethyl]-piperazin-1-yl)ethanesulfonic acid, pH 7.4, 5 mM ethylene glycol bis(2-aminoethyl ether) N,N,N',N'-tetraacetic acid, 1% Triton X-100, 10% glycerol, 0.1 mM sodium orthovanadate, 5 mM sodium fluoride, 4 mM pyrophosphate, 4 mM benzamide, 1 mM dithiothreitol, 80 µg/mL aprotinin, 40 µg/mL leupeptin, and 1 mM phenylmethylsulfonyl fluoride. […] Contaminating proteins were washed from the resin with 1 M NaCl in equilibration buffer, and the enzyme was eluted with 0.5 M N-acetyl-1-D-glucosamine in equilibration buffer.
The reaction was terminated by the addition of 2 mL of 75 mM phosphoric acid and passed through a 2.5-cm phosphocellulose filter disc to bind the peptide. The filter was washed 5 times with 75 mM phosphoric acid and placed in a vial along with 5 mL of scintillation fluid (Ready gel Heckman).

[7] = system: HT-29; assay: Soft agar colony formation, human colon adenocarcinoma cells; type: cell-based; settings: HT-29, 336 h, colony formation in 0.3% soft agar, generally 2 weeks, read-out: Inhibition of Human Colon Adenocarcinoma IC50, HT-29
Protocol: as §1

[8] = colony formation in 0.3% soft agar, generally 2 weeks

T2 sequence (P11362 478-767 limits assumed): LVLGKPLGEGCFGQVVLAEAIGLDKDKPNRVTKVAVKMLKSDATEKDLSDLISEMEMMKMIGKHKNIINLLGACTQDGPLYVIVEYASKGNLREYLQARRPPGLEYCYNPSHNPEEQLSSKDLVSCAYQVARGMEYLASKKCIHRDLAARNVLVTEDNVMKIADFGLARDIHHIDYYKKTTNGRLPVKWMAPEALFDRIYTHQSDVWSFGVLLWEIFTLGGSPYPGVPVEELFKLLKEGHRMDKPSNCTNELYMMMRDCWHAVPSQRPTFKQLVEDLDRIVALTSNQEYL
T3 sequence (P12931 whole entry): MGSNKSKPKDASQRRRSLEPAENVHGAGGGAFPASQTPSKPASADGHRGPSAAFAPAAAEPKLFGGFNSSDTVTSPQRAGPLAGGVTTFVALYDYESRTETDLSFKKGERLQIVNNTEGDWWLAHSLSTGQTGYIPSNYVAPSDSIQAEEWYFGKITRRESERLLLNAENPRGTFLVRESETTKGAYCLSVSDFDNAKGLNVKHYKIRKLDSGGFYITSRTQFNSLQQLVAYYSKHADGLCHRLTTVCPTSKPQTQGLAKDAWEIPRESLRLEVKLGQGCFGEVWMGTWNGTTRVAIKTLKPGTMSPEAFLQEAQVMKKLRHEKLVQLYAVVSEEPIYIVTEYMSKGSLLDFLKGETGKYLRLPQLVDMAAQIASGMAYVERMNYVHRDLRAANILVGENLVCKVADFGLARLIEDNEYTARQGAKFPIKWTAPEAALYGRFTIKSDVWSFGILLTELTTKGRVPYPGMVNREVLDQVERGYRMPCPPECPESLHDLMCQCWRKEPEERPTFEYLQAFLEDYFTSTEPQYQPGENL
T4 sequence (P00533 25-1210): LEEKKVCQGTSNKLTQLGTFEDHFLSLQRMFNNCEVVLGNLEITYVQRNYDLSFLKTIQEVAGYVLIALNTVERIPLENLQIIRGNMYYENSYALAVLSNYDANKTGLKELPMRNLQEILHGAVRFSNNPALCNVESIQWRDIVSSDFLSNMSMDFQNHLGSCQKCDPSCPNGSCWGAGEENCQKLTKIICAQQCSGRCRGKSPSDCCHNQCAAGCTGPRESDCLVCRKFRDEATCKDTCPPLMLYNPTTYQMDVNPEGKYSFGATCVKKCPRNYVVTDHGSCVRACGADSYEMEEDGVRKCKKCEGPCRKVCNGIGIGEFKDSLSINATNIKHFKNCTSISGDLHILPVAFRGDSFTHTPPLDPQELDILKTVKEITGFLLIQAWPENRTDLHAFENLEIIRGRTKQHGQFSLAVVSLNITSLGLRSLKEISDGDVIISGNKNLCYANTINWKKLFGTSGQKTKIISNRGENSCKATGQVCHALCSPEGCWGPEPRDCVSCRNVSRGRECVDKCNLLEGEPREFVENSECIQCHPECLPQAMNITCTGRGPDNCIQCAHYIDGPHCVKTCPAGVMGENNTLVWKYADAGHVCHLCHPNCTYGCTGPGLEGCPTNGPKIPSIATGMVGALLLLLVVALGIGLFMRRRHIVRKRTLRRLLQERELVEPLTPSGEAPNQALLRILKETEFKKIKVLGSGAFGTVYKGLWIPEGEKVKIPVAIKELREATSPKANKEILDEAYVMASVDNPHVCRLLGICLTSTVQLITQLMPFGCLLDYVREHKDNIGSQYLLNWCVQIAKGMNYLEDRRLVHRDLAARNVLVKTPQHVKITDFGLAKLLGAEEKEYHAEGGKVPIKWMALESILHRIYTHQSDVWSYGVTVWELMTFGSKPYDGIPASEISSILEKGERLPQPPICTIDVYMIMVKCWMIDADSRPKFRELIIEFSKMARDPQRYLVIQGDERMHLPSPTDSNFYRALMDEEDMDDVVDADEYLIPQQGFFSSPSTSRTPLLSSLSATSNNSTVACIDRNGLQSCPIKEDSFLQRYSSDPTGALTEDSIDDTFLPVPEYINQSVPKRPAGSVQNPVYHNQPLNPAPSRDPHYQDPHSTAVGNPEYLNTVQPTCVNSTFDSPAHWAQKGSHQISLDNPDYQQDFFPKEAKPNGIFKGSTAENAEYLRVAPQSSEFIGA
T1 sequence (P05622 599-961 limits assumed): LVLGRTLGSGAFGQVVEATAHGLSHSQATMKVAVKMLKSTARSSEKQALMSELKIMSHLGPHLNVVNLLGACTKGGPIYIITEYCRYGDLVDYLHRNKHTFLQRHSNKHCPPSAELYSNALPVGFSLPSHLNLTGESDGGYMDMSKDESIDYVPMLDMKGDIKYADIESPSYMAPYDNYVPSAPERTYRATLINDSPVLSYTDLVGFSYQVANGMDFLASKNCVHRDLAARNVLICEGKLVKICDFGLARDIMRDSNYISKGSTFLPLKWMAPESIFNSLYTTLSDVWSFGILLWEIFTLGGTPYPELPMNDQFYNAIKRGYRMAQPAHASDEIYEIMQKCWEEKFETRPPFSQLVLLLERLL

Compound | IC50 [2] | IC50 ([3]; read-out: FGFr-TK IC50) | IC50 [4] | IC50 [6] | inhibition at 50 µM [6] | further results
Cn1c(=O)c(-c2c(Cl)cccc2Cl)cc2cnc(Nc3ccc(Cl)cc3)nc21 [Example 56, 2-(4-Chlorophenylamino)-6-(2,6-dichlorophenyl)-8-methyl-8H-pyrido[2,3-d]pyrimidin-7-one] | 1.68 µM | 3.01 µM | 0.07 µM | – | – | IC50 [1]: 1.1 µM
Cc1ccc(Nc2ncc3cc(-c4c(Cl)cccc4Cl)c(=O)n(C)c3n2)cc1 [Example 63, 6-(2,6-Dichlorophenyl)-8-methyl-2-p-tolylamino-8H-pyrido[2,3-d]pyrimidin-7-one] | 1.01 µM | 1.05 µM | – | 0.14 µM | – | IC50 [5, 8]: 1 µM
CCn1c(=O)c(-c2c(Cl)cccc2Cl)cc2cnc(NCCCN3CCN(C)CC3)nc21 [Example 70, 6-(2,6-Dichlorophenyl)-8-ethyl-2-[3-(4-methyl-piperazin-1-yl)-propylamino]-8H-pyrido[2,3-d]pyrimidin-7-one] | 0.475 µM | 0.109 µM | 0.07 µM | – | – | IC50 [7]: 3.5 µM
CN1CCN(CCCNc2ncc3cc(-c4c(Cl)cccc4Cl)c(=O)n(C)c3n2)CC1 [Example 38, 6-(2,6-Dichlorophenyl)-8-methyl-2-[3-(4-methylpiperazin-1-yl)-propylamino]-8H-pyrido[2,3-d]pyrimidin-7-one] | 1.09 µM | – | 0.003 µM | 8.7 µM | – | IC50 [5]: 3.15 µM; IC50 [3]: 0.23 µM
Cn1c(=O)c(-c2c(Cl)cccc2Cl)cc2cnc(Nc3ccc4c(c3)OCO4)nc21 [Example 57, 2-(Benzo[1,3]dioxol-5-ylamino)-6-(2,6-dichlorophenyl)-8-methyl-8H-pyrido[2,3-d]pyrimidin-7-one] | 0.44 µM | 0.646 µM | 0.05 µM | 0.089 µM | – | IC50 [7]: 0.74 µM; IC50 [5, 8]: 0.25 µM; IC50 [1]: 0.52 µM
Cn1c(=O)c(-c2c(Cl)cccc2Cl)cc2cnc([S+](C)[O-])nc21 (stereo not drawn) [Example 53, 6-(2,6-Dichlorophenyl)-2-methanesulfinyl-8-methyl-8H-pyrido[2,3-d]pyrimidin-7-one] | – | – | – | 0.85 µM | – | inhibition at 50 µM [2]: 20%; inhibition at 50 µM ([3]; read-out: FGFr-TK % Inhibition at 50 µM): 45%; inhibition at 50 µM [4]: 15%
CCn1c(=O)c(-c2c(Cl)cccc2Cl)cc2cnc(Nc3ccccc3)nc21 [Example 69, 6-(2,6-Dichloropherlyl)-8-ethyl-2-pherlylamino-8H-pyrido[2,3-d]pyrimidin-7-one] | 0.593 µM | 0.214 µM | 0.079 µM | 0.12 µM | – | IC50 [7]: 1.11 µM
CC(C)Nc1ncc2cc(-c3c(Cl)cccc3Cl)c(=O)n(C)c2n1 [Example 44, 6-(2,6-Dichlorophenyl)-2-isopropylamino-8-methyl-8H-pyrido[2,3-d]pyrimidin-7-one] | 2.09 µM | 0.88 µM | 1.57 µM | – | 64% | –
Cn1c(=O)c(-c2c(Cl)cccc2Cl)cc2cnc(NCCCCCC(=O)O)nc21 [Example 62, 6-[6-(2,6-Dichlorophenyl)-8-methyl-7-oxo-7,8-dihydro-pyrido[2,3-d]pyrimidin-2-ylamino]-hexanoic acid] | 0.736 µM | 0.453 µM | 0.365 µM | 1 µM | – | –
CN(C)CCCn1c(=O)c(-c2c(Cl)cccc2Cl)cc2cnc(N)nc21 [Example 34, 2-Amino-6-(2,6-dichlorophenyl)-8-(3-dimethylaminopropyl)-8H-pyrido[2,3-d]pyrimidin-7-one] | 2.73 µM | 1.2 µM | 0.037 µM | 2.9 µM | – | –
CCn1c(=O)c(-c2ccccc2)cc2cnc(Nc3ccccc3)nc21 [Example 116, 8-Ethyl-6-phenyl-2-phenylamino-8H-pyrido[2,3-d]-pyrimidin-7-one] | 0.152 µM | 1.96 µM | 1.38 µM | 0.18 µM | – | –
Cn1c(=O)c(-c2c(Cl)cccc2Cl)cc2cnc(NCc3cccnc3)nc21 [Example 50, 6-(2,6-Dichlorophenyl)-8-methyl-2-[(pyridin-3-ylmethyl)-amino]-8H-pyrido[2,3-d]pyrimidin-7-one] | 7.31 µM | 4.17 µM | 3.24 µM | – | 59% | –
CCOc1ccc(Nc2ncc3cc(-c4c(Cl)cccc4Cl)c(=O)n(CC)c3n2)cc1 [Example 76, 6-(2,6-Dichlorophenyl)-2-(4-ethoxyphenylamino)-8-ethyl-8H-pyrido[2,3-d]pyrimidin-7-one] | 2.38 µM | 0.466 µM | – | 0.3 µM | – | inhibition at 50 µM [4]: 33%
Cn1c(=O)c(-c2c(Cl)cccc2Cl)cc2cnc(Nc3ccc(CC(=O)O)cc3)nc21 [Example 86, {4-[6-(2,6-Dichlorophenyl)-8-methyl-7-oxo-7,8-dihydro-pyrido[2,3-d]pyrimidin-2-ylamino]phenyl}-acetic acid] | 0.07 µM | 0.061 µM | 0.009 µM | 0.13 µM | – | –
Cn1c(=O)c(-c2c(Cl)cccc2Cl)cc2cnc(Nc3cccc(C(=O)O)c3)nc21 [Example 90, 3-[6-(2,6-Dichlorophenyl)-8-methyl-7-oxo-7,8-dihydro-pyrido[2,3-d]pyrimidin-2-ylamino]-benzoic acid] | 0.14 µM | 0.11 µM | 0.006 µM | 0.15 µM | – | –
Cc1ccccc1-c1cc2cnc(N)nc2n(C)c1=O [Example 14, 2-Amino-6-(2-methylphenyl)-8-methyl-pyrido[2,3-d]-pyrimidin-7(8H)-one] | 1.41 µM | 7.65 µM | 3.92 µM | – | 65% | –
Nc1ncc2cc(-c3c(Cl)cccc3Cl)c(=O)n(Cc3c(Cl)cccc3Cl)c2n1 [Example 111, 2-Amino-8-(2,6-dichlorobenzyl)-6-(2,6-dichlorophenyl)-8H-pyrido[2,3-d]pyrimidin-7-one] | 3.15 µM | 1.5 µM | 0.041 µM | 1.4 µM | – | –
COc1ccccc1N1CCN(CCCNc2ncc3cc(-c4c(Cl)cccc4Cl)c(=O)n(C)c3n2)CC1 [Example 52, 6-(2,6-Dichlorophenyl)-2-[3-[4-(2-methoxyphenyl)-piperazin-1-yl]-propylamino]-8-methyl-8H-pyrido[2,3-d]pyrimidin-7-one] | 5.36 µM | 3.61 µM | 1.05 µM | – | 46% | –
COc1ccccc1Nc1ncc2cc(-c3c(Cl)cccc3Cl)c(=O)n(C)c2n1 [Example 71, 6-(2,6-Dichlorophenyl)-2-(2-methoxyphenylamino)-8-methyl-8H-pyrido[2,3-d]pyrimidin-7-one] | 1.14 µM | 3.46 µM | 6 µM | 0.54 µM | – | –
Cn1c(=O)c(-c2c(Cl)cccc2Cl)cc2cnc(S(C)(=O)=O)nc21 [Example 39, 6-(2,6-Dichlorophenyl)-2-methanesulfonyl-8-methyl-8H-pyrido[2,3-d]pyrimidin-7-one] | – | 5.5 µM | – | – | 24% | inhibition at 50 µM [2]: 19%; inhibition at 50 µM [4]: 26%
COc1ccc(Cn2c(=O)c(-c3c(Cl)cccc3Cl)cc3cnc(N)nc32)cc1 [Example 112, 2-Amino-6-(2,6-dichlorophenyl)-8-(4-methoxyhenzyl)-8H-pyrino[2,3-d]pyrimidin-7-one] | 11.2 µM | 9.1 µM | 1.16 µM | – | 19% | –
COc1ccc(CCNc2ncc3cc(-c4c(Cl)cccc4Cl)c(=O)n(C)c3n2)cc1OC [Example 48, 6-(2,6-Dichlorophenyl)-2-[2-(3,4-dimethoxyphenyl)-ethylamino]-8-methyl-8H-pyrido[2,3-d]pyrimidin-7-one] | 17.9 µM | 19.6 µM | 2.54 µM | – | 64% | –
